The target of test [1] is T1, ER (SK-BR-3 cells transfected with ERE plasmid and ER) (Homo sapiens, UniProt P03372).
T1 construct: expressed in transfected cells; host or cells: SK-BR-3 (transient, lipofectamine 3000)
T1 sequence (P03372 1-595): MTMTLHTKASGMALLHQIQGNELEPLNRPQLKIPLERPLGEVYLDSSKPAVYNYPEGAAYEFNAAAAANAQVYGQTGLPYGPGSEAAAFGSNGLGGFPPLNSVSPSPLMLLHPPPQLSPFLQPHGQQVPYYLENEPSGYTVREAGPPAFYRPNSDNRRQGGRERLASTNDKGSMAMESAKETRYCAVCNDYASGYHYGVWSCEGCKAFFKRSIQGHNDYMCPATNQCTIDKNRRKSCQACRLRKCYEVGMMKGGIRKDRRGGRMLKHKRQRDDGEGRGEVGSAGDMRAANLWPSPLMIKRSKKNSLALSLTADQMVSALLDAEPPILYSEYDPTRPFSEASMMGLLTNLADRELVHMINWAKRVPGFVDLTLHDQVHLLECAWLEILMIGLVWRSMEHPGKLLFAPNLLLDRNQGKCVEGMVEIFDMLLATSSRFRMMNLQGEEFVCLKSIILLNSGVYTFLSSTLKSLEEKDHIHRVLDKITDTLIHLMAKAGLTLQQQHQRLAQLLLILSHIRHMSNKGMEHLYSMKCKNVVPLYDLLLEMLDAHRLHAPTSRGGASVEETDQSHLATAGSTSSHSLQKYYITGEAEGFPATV
Kind of test: ER antagonism assay. To be noted: 100 nM β-Estradiol, 24 h, Dual-glo luciferase. It counts as cell-based. How it is done:
ER antagonism assay: To evaluate ER antagonist activity, SK-BR-3 cells were seeded at a density of 30000 cells/well in the assay plate. The assay plate was then incubated at 37° C., 5% CO2 for 24 h. A mixture of ERE plasmid and ER in opti-MEM media was incubated with lipofectamine 3000 in Opti-MEM media and incubated at room temperature for 15 minutes. 10 μL of this transfection mix was added to each well of the assay plate and the assay plate was incubated at 37° C., 5% CO2 for 24 h. 100 nM β-Estradiol in 10 μL medium or 10 μL medium (control wells) was added to corresponding wells of assay plate and incubated at 37° C. 5% CO2 for 24 h. After the incubation period, 50 μL of Dual-glo luciferase reagent was added to the assay plate and mixed at room temperature for 20 mins on an orbital shaker, before reading out on the EnVision plate reader. 50 μL of Stop & Glo reagent was added to assay plate, mixed at room temperature for 20 minutes, and read on the Envision plate reader.

The subject of test [2] is IEC6 cells. Kind of test: Cell viability assay IEC6. It counts as cell-based. To be noted: Rattus norvegicus, IEC-6, 144 h; 6 days, CellTiterGlo. How it is done:
(§1) Cell viability assay: LNCap, 22Rv1, MCF7, MDAMB361, T47D, and IEC6 cells were seeded at a density of 500-2000 cells/well in 96 well plates, and a ‘T0’ (timepoint 0) was included along with the assay plate. The plates were then incubated at 37° C., 5% CO2 in a cell culture incubator overnight. On the next day, the ‘T0’ plate was assayed using CellTiterGlo (Promega, Inc) according to the manufacturer's instructions. The appropriate compounds were diluted in DMSO and added to the assay plate (final DMSO concentration of 0.1-0.2%) on the next day. The assay plates were incubated for 6 days at 37° C., 5% CO2. After the incubation period, the plates were assayed using CellTiterGlo (Promega, Inc) according to the manufacturer's instructions and luminescence was read on the EnVision plate reader. Inhibition of the tested compounds was determined by the following formula: Inhibition rate (%)=(1−(RLU compound−RLU day0)/(RLU control−RLU day0))*100%. GraphPadPrism was used to analyze the data and determine GI50/IC50 values.
(In general: In ATP-based viability assays light output follows the ATP content of the culture.)

Test [3] relates to MDAMB361 cells. Kind of test: Cell viability assay MDAMB361. It is filed as cell-based. The following applies: Homo sapiens, MDA-MB-361, 144 h; 6 days, CellTiterGlo. How it is done: as §1
In test [4] the target is T2, ER Alpha-ligand binding domain (LBD) (Homo sapiens, UniProt P03372).
T2 sequence (P03372 311-547 limits assumed): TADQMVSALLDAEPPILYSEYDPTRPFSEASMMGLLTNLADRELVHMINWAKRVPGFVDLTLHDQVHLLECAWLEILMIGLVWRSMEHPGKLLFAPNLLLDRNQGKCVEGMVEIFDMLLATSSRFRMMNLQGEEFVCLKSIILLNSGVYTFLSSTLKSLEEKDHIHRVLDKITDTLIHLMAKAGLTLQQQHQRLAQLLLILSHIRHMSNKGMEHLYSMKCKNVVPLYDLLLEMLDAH
Kind of test: ER binding assay (LanthaScreen TR-FRET ER Alpha Competitive Binding). The following applies: Fluormone ES2 Green tracer 3 nM, 2 h. How it is done:
ER binding assay: ERα binding was assessed using the LanthaScreen® TR-FRET ER Alpha Competitive Binding kit from ThermoFisherScientific. In this assay, a terbium-labeled anti-GST antibody was used to indirectly label GST-tagged ER Alpha-ligand binding domain (LBD) by binding to its GST tag. Competitive binding to the ER Alpha-LBD (GST) was detected by a test compound's ability to displace a fluorescent ligand (Fluormone™ ES2 Green tracer) from the ER Alpha-LBD (GST), which results in a loss of FRET signal between the Tb-anti-GST antibody and the tracer. To assess ER binding, test compound (top dose 10 μM, 4 fold serial dilution, 8 point dose response) and controls (e.g. estradiol) were transferred to the assay plate. The Fluormone™ ES2 Green tracer (3 nM final concentration with assay buffer) was added to the assay plate. This was followed by addition of a mixture of the ER Alpha-LBD (GST) and terbium anti-GST antibody. After a 2 h incubation period at room temperature, the plate was read on the Envision plate reader and the TR-FRET ratio of 520:495 emissions were calculated and used to determine the IC50 from a dose response curve of the compound.

The test system of test [5] is MCF7 cells. Kind of test: Cell viability assay MCF7. It counts as cell-based. To be noted: Homo sapiens, MCF7, 144 h; 6 days, CellTiterGlo. How it is done:
as §1

A value given as a limit tells only on which side of the number the result lay.

As a reminder, the IC50 is the concentration needed to halve the response being measured. A higher IC50 goes with lower potency. A word on the GI50: it is the concentration at which growth is held to half of that of the control. A lower GI50 goes with greater sensitivity of the cells. Turning to `CCc1cc2ncc(CN3CCN(C(=O)CCCCCOc4cc(F)c([C@@H]5c6[nH]c7ccccc7c6C[C@@H](C)N5CC(C)(C)F)c(F)c4)CC3)cc2[nH]c1=O` [Compound 61, 7-((4-(6-(3,5-Difluoro-4-((1R,3R)-2-(2-fluoro-2-methylpropyl)-3-methyl-2,3,4,9-tetrahydro-1H-pyrido[3,4-b]indol-1-yl)phenoxy)hexanoyl)piperazin-1-yl)methyl)-3-ethyl-1,5-naphthyridin-2(1H)-one], the 50% inhibitory concentration (IC50) in test [1] was at most 100 nM; in test [2] it was over 30000 nM; in test [4], at most 100 nM. Also, the concentration for 50% growth inhibition (GI50) was over 30000 nM in test [3] and at most 500 nM in test [5].
`CCc1cc2ncc(CN3CCN(C(=O)[C@H]4CC[C@H](COc5cc(F)c([C@@H]6c7[nH]c8ccccc8c7C[C@@H](C)N6CC(C)(C)F)c(F)c5)CC4)CC3)cc2[nH]c1=O` [Compound 70, 7-((4-((1r,4r)-4-((3,5-Difluoro-4-((1R,3R)-2-(2-fluoro-2-methylpropyl)-3-methyl-2,3,4,9-tetrahydro-1H-pyrido[3,4-b]indol-1-yl)phenoxy)methyl)cyclohexane-1-carbonyl)piperazin-1-yl)methyl)-3-ethyl-1,5-naphthyridin-2(1H)-one]: the half-maximal inhibitory concentration (IC50) is at most 100 nM in test [1] and over 30000 nM in test [2]. In addition, the figures for the GI50 in test [3] and in test [5] were at most 500 nM and 5000 to 30000 nM, respectively.
Taken in the same sequence, the figures for `CCc1cc2ncc(CN3CCN(CCOc4cc(F)c([C@@H]5c6[nH]c7ccccc7c6C[C@@H](C)N5CC(C)(C)F)c(F)c4)CC3)cc2[nH]c1=O` [Compound 71, 7-((4-(2-(3,5-Difluoro-4-((1R,3R)-2-(2-fluoro-2-methylpropyl)-3-methyl-2,3,4,9-tetrahydro-1H-pyrido[3,4-b]indol-1-yl)phenoxy)ethyl)piperazin-1-yl)methyl)-3-ethyl-1,5-naphthyridin-2(1H)-one] were at most 100 nM, 500 to 5000 nM, 500 to 5000 nM and at most 500 nM.
Turning to `CCc1cc2ncc(CN3CCN(CCCCCCOc4cc(F)c([C@@H]5c6[nH]c7ccccc7c6C[C@@H](C)N5CC(C)(C)F)c(F)c4)CC3)cc2[nH]c1=O` [Compound 72, 7-((4-(6-(3,5-Difluoro-4-((1R,3R)-2-(2-fluoro-2-methylpropyl)-3-methyl-2,3,4,9-tetrahydro-1H-1-pyrido[3,4-b]indol-1-yl)phenoxy)hexyl)piperazin-1-yl)methyl)-3-ethyl-1,5-naphthyridin-2(1H)-one], the concentration for half-maximal inhibition (IC50) in test [1] was at most 100 nM; in test [2], 5000 to 30000 nM. In addition, the concentration for 50% growth inhibition (GI50) in test [3] and in test [5] was at most 500 nM in each case.
Regarding `CCc1cc2ncc(CN3CCN(C(=O)COc4cc(F)c([C@@H]5c6[nH]c7ccccc7c6C[C@@H](C)N5CC(C)(C)F)c(F)c4)CC3)cc2[nH]c1=O` [Compound 73, 7-((4-(2-(3,5-Difluoro-4-((1R,3R)-2-(2-fluoro-2-methylpropyl)-3-methyl-2,3,4,9-tetrahydro-1H-pyrido[3,4-b]indol-1-yl)phenoxy)acetyl)piperazin-1-yl)methyl)-3-ethyl-1,5-naphthyridin-2(1H)-one], the IC50 in test [1] was at most 100 nM; in test [2], over 30000 nM. Besides, the concentration for 50% growth inhibition (GI50) in test [3] and in test [5] was at most 500 nM in each case.
With `CCc1cc2ncc(CN3CCC(N(C)C(=O)COc4cc(F)c([C@@H]5c6[nH]c7ccccc7c6C[C@@H](C)N5CC(C)(C)F)c(F)c4)CC3)cc2[nH]c1=O` [Compound 74, 2-(3,5-Difluoro-4-((1R,3R)-2-(2-fluoro-2-methylpropyl)-3-methyl-2,3,4,9-tetrahydro-1H-pyrido[3,4-b]indol-1-yl)phenoxy)-N-(1-((7-ethyl-6-oxo-5,6-dihydro-1,5-naphthyridin-3-yl)methyl)piperidin-4-yl)-N-methylacetamide], the concentration for half-maximal inhibition (IC50) in test [1] is at most 100 nM; in test [2], 500 to 5000 nM. For the same molecule, the concentration for 50% growth inhibition (GI50) in test [3] and in test [5] was at most 500 nM in each case.

Source of the values: patent US12006314B2, “Anti-cancer nuclear hormone receptor-targeting compounds” (Nuvation Bio Inc., priority 2021, dated 2024).
